Drawing on US12240844B2 (Voronoi, Inc., priority 2019, dated 2025), this text covers IC50, GI50 and inhibition for 19 compounds.

pIC50: −log10 of the molar value.

The target of one test is LRRK2 (G2019S) (Homo sapiens, UniProt Q5S007, G2019S). Description: LRRK2 G2019S enzyme inhibition, ADP-Glo kinase assay. Type of test: biochemical. On the set-up: purchased SignalChem L10-12GG. In a few lines: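 Activity read as ADP-Glo luminescence, normalized to untreated solvent control, with IC50 (nM) fitted over 12 final compound levels (top 50 μM). Reaction: 2 h, 25° C, human LRRK2 G2019S 16 ng, ATP 25 μM, substrate 0.2 μg, in Tris-HCl pH 7.4 with MgCl2, BSA and DTT.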
Chain of LRRK2 (G2019S) (Q5S007 970-2527 G2019S limits assumed): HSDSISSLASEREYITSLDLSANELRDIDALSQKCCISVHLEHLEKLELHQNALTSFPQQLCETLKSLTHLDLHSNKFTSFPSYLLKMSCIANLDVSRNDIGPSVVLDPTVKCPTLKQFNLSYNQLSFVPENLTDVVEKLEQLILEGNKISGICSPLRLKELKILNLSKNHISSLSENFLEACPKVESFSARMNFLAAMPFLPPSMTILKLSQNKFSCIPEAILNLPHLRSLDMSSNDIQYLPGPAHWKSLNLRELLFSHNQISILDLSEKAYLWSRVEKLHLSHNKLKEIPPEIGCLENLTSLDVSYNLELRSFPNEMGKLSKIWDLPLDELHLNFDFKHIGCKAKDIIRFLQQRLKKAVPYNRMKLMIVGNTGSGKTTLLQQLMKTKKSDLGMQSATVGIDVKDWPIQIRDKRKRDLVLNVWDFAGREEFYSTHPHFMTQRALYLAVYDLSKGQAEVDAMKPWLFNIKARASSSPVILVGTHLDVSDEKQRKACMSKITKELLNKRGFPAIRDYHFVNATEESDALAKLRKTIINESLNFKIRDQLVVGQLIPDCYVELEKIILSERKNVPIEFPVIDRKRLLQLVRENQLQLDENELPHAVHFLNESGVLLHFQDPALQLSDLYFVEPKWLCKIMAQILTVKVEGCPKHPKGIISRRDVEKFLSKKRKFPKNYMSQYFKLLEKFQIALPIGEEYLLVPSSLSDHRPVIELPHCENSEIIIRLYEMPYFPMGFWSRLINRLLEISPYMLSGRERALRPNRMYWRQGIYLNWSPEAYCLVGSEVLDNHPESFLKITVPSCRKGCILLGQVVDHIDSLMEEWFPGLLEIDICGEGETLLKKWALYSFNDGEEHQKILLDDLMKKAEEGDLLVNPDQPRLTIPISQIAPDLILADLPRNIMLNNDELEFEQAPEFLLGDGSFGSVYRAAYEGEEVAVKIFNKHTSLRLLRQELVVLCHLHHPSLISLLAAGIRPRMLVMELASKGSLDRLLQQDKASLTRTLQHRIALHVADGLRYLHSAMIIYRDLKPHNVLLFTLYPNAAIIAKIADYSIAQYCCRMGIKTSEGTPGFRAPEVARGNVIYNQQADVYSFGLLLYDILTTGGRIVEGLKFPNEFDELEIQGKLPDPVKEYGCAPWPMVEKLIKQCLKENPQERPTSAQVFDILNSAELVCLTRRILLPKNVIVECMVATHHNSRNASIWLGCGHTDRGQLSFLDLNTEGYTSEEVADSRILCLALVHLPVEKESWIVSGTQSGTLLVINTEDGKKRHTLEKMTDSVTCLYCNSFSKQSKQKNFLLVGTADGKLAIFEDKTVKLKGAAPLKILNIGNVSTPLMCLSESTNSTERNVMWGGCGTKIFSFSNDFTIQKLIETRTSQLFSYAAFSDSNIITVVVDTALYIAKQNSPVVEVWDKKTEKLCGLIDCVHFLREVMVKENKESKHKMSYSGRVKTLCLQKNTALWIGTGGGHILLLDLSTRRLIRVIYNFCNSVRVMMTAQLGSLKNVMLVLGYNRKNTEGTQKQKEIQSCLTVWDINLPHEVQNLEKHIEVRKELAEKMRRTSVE
For orientation: In ADP-Glo the light output rises with the ADP produced.

The subject of the next test is MDA-MB-231 cell line. Put plainly: MDA-MB-231 cancer cell proliferation inhibition (Cell Titer-Glo). Conditions: Homo sapiens, MDA-MB-231 triple-negative breast cancer cell line, 72 hours. Type of test: cell-based. In a few lines:
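GI50 comes from CellTiter-Glo luminescence, read 10 min after reagent addition at RT, following 72 h compound treatment. Eleven concentrations were used (⅓ steps, highest 10 μM final) on 2000 cells/well. MDA-MB-231 and MDA-MB-468 were grown in DMEM, SHP-77 in RPMI.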
(In general: Cellular ATP, detected with luciferase, serves as a proxy for viable cell number.)

The next test has as its target LRRK2 (Homo sapiens, UniProt Q5S007). Put plainly: LRRK2 enzyme inhibition, ADP-Glo kinase assay. Type of test: biochemical. On the set-up: purchased Invitrogen PR8604B. Put shortly: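 ADP-Glo luminescence read after 2 h at 25° C, 10 μM ATP, 25 ng purified human LRRK2 and […] substrate in Tris-HCl pH7.4 buffer with MgCl2, BSA, DTT. Twelve final concentrations, 50 μM down to 0.000001024 μM; IC50 (nM) from inhibition relative to untreated solvent control.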

Another test has as its system human DYRK1A and Tau. Put plainly: Tau phosphorylation inhibition, ClariCELL Kinase Cell-Based Assay (Carnabio). Put shortly: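 HEK293 cells transiently expressing human DYRK1A and Tau were exposed to compound, then lysed. Released Tau was captured on plate and its phosphorylation quantified by ELISA with a phospho-Tau-specific antibody.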

Chain of LRRK2 (Q5S007 970-2527 limits assumed): as the sequence (Q5S007 970-2527 G2019S limits assumed) above, with S1050G counted along it

Consider `CCNc1cc(Nc2ccc(C(=O)N3CCC(N4CCOCC4)CC3)c3c2OCO3)nc2[nH]cc(C(F)(F)F)c12` [Example 37, (7-((4-(ethylamino)-3-(trifluoromethyl)-1H-pyrrolo[2,3-b]pyridin-6-yl)amino)benzo[d][1,3]dioxol-4-yl)(4-morpholinopiperidin-1-yl)methanone], for which the pIC50 at LRRK2 (G2019S) and against LRRK2 was more than 7.00 throughout. Further, in the test with MDA-MB-231 cell line, the GI50 fell in the range of 301 to 1000 nM.
For the compound `COc1cc(S(=O)(=O)N2CCOCC2)ccc1Nc1cc(C2CC2)c2c(C#N)c[nH]c2n1` [Example 227, 4-cyclopropyl-6-((2-methoxy-4-(morpholinosulfonyl)phenyl)amino)-1H-pyrrolo[2,3-b]pyridine-3-carbonitrile], the pIC50 on LRRK2 (G2019S) is 6.52 to 7.00; against LRRK2 it was more than 7.00. The compound also gave a GI50 in the test on MDA-MB-231 cell line of 301 to 1000 nM.
`CCNc1cc(Nc2ccc(C(=O)N3CCC(N4C[C@H]5C[C@@H]4CO5)CC3)c3c2OCC3)nc2[nH]cc(C(F)(F)F)c12` [Example 244, (4-((1R,4R)-2-oxa-5-azabicyclo[2.2.1]heptan-5-yl)piperidin-1-yl)(7-((4-(ethylamino)-3-(trifluoromethyl)-1H-pyrrolo[2,3-b]pyridin-6-yl)amino)-2,3-dihydrobenzofuran-4-yl)methanone]: the pIC50 against LRRK2 (G2019S) was more than 7.00. The same compound yielded a GI50 with MDA-MB-231 cell line of 301 to 1000 nM. Besides, in the test on human DYRK1A and Tau, the inhibition at 0.25 µM was found to be 58%, the inhibition at 0.5 µM was 86% and the inhibition at 1 µM came out at 107%.
For `CCNc1cc(Nc2ccc(P3(=O)CCN(C4CC4)CC3)cc2OC)nc2[nH]cc(C(F)(F)F)c12` [Example 206, 1-cyclopropyl-4-(4-((4-(ethylamino)-3-(trifluoromethyl)-1H-pyrrolo[2,3-b]pyridin-6-yl)amino)-3-methoxyphenyl)-1,4-azaphosphinane 4-oxide], the pIC50 on LRRK2 is 6.52 to 7.00.
Regarding `CCNc1cc(Nc2ccc(C(=O)N3CCN(C4COC4)CC3)c3c2OCC3)nc2[nH]cc(C(F)(F)F)c12` [Example 248, (7-((4-(ethylamino)-3-(trifluoromethyl)-1H-pyrrolo[2,3-b]pyridin-6-yl)amino)-2,3-dihydrobenzofuran-4-yl)(4-(oxetan-3-yl)piperazin-1-yl)methanone], the pIC50 on LRRK2 (G2019S) is more than 7.00. The same compound displayed a GI50 in the test with MDA-MB-231 cell line of 301 to 1000 nM. Moreover, in the test on human DYRK1A and Tau, the inhibition at 0.25 µM turned out to be 53.5%, the inhibition at 0.5 µM stood at 76% and the inhibition at 1 µM worked out at 95.1%.
In turn, `CCNc1cc(Nc2ccc(C(=O)N3CCN(C4COC4)CC3)c3c2OCCO3)nc2[nH]cc(C(F)(F)F)c12` [Example 173, (8-((4-(ethylamino)-3-(trifluoromethyl)-1H-pyrrolo[2,3-b]pyridin-6-yl)amino)-2,3-dihydrobenzo[b] [1,4]dioxin-5-yl)(4-(oxetan-3-yl)piperazin-1-yl)methanone] showed a GI50 in the test on MDA-MB-231 cell line of 301 to 1000 nM. The negative logarithm of the IC50 (pIC50) at LRRK2 is more than 7.00. In the test on human DYRK1A and Tau, the inhibition at 0.25 µM worked out at 5.2%, the inhibition at 0.5 µM was determined as 28.2% and the inhibition at 1 µM was 46.4%.
As for `CCNc1cc(Nc2ccc(C(=O)N3C[C@@H]4C[C@H]3CO4)c3c2OCCO3)nc2[nH]cc(C(F)(F)F)c12` [Example 44, ((1S,4S)-2-oxa-5-azabicyclo[2.2.1]heptan-5-yl)(8-((4-(ethylamino)-3-(trifluoromethyl)-1H-pyrrolo[2,3-b]pyridin-6-yl)amino)-2,3-dihydrobenzo[b] [1,4]dioxin-5-yl)methanone], the GI50 in the test on MDA-MB-231 cell line fell in the range of 301 to 1000 nM. The compound also had a negative logarithm of the IC50 (pIC50) at LRRK2 of more than 7.00.
On to `COc1cc(S(=O)(=O)N2CCC(N3CCOCC3)CC2)ccc1Nc1cc(NCCS(C)(=O)=O)c2c(C(F)(F)F)c[nH]c2n1` [Example 194, N^6-(2-methoxy-4-((4-morpholinopiperidin-1-yl)sulfonyl)phenyl)-N^4-(2-(methylsulfonyl)ethyl)-3-(trifluoromethyl)-1H-pyrrolo[2,3-b]pyridine-4,6-diamine], for which the pIC50 on LRRK2 (G2019S) and against LRRK2 was more than 7.00 each time. Besides, in the test on MDA-MB-231 cell line, the GI50 is 301 to 1000 nM.
For `CNc1cc(Nc2ccc(P3(=O)CCN(C4CC4)CC3)cc2OC)nc2[nH]cc(C#N)c12` [Example 146, 6-((4-(1-cyclopropyl-4-oxido-1,4-azaphosphinan-4-yl)-2-methoxyphenyl)amino)-4-(methylamino)-1H-pyrrolo[2,3-b]pyridine-3-carbonitrile], the GI50 with MDA-MB-231 cell line was in the range of 301 to 1000 nM. Moreover, the pIC50 at LRRK2 is more than 7.00.
On LRRK2 (G2019S), `CCNc1cc(Nc2cc(F)c(S(=O)(=O)N3CCC(N4CCOCC4)CC3)cc2OC)nc2[nH]cc(C(F)(F)F)c12` [Example 266, N^4-ethyl-N^6-(5-fluoro-2-methoxy-4-((4-morpholinopiperidin-1-yl)sulfonyl)phenyl)-3-(trifluoromethyl)-1H-pyrrolo[2,3-b]pyridine-4,6-diamine] had a pIC50 of 6.52 to 7.00. The compound further returned a GI50 in the test with MDA-MB-231 cell line of 301 to 1000 nM.
Take `CNc1cc(Nc2ccc(P3(=O)CCN(C4CC4)CC3)cc2OC)nc2[nH]cc(C(F)(F)F)c12` [Example 205, 1-cyclopropyl-4-(3-methoxy-4-((4-(methylamino)-3-(trifluoromethyl)-1H-pyrrolo[2,3-b]pyridin-6-yl)amino)phenyl)-1,4-azaphosphinane 4-oxide]: the pIC50 against LRRK2 (G2019S) and against LRRK2 was 6.52 to 7.00 in each case. Also, in the test on MDA-MB-231 cell line, the concentration for 50% growth inhibition (GI50) was 301 to 1000 nM.
Compound `COCCNc1cc(Nc2ccc(P3(=O)CCN(C4CC4)CC3)cc2OC)nc2[nH]cc(C#N)c12` [Example 148, 6-((4-(1-cyclopropyl-4-oxido-1,4-azaphosphinan-4-yl)-2-methoxyphenyl)amino)-4-((2-methoxyethyl)amino)-1H-pyrrolo[2,3-b]pyridine-3-carbonitrile] returned a GI50 with MDA-MB-231 cell line of 301 to 1000 nM. In addition, at LRRK2, the pIC50 was more than 7.00.
As for `COCCNc1cc(Nc2ccc(C(=O)N3CCC(N4CCOCC4)CC3)c3c2OCC3)nc2[nH]cc(C(F)(F)F)c12` [Example 55, (7-((4-((2-methoxyethyl)amino)-3-(trifluoromethyl)-1H-pyrrolo[2,3-b]pyridin-6-yl)amino)-2,3-dihydrobenzofuran-4-yl)(4-morpholinopiperidin-1-yl)methanone], the pIC50 against LRRK2 (G2019S) and at LRRK2 was more than 7.00 each time. The GI50 in the test with MDA-MB-231 cell line is 301 to 1000 nM.
Take `CCCNc1cc(Nc2ccc(C(=O)N3CCC(N4CCOCC4)CC3)c3c2OCCO3)nc2[nH]cc(C(F)(F)F)c12` [Example 162, (4-morpholinopiperidin-1-yl)(8-((4-(propylamino)-3-(trifluoromethyl)-1H-pyrrolo[2,3-b]pyridin-6-yl)amino)-2,3-dihydrobenzo[b] [1,4]dioxin-5-yl)methanone]: the pIC50 on LRRK2 (G2019S) and against LRRK2 was more than 7.00 in each case.
For `COCCNc1cc(Nc2ccc(P3(=O)CCN(C4CC4)CC3)cc2OC)nc2[nH]cc(C(F)(F)F)c12` [Example 207, 1-cyclopropyl-4-(3-methoxy-4-((4-((2-methoxyethyl)amino)-3-(trifluoromethyl)-1H-pyrrolo[2,3-b]pyridin-6-yl)amino)phenyl)-1,4-azaphosphinane 4-oxide], the pIC50 against LRRK2 (G2019S) and against LRRK2 was 6.52 to 7.00 each time. The GI50 with MDA-MB-231 cell line is 301 to 1000 nM.
As to `CCNc1cc(Nc2ccc(P3(=O)CCN(C(C)=O)CC3)cc2OC)nc2[nH]cc(C(F)(F)F)c12` [Example 42, 1-(4-(4-((4-(ethylamino)-3-(trifluoromethyl)-1H-pyrrolo[2,3-b]pyridin-6-yl)amino)-3-methoxyphenyl)-4-oxido-1,4-azaphosphinan-1-yl)ethan-1-one], the values for the pIC50 on LRRK2 (G2019S) and against LRRK2 were 6.52 to 7.00 and more than 7.00, respectively. The GI50 with MDA-MB-231 cell line lay in the range of 301 to 1000 nM.
The matching figures for `CNc1cc(Nc2ccc(C(=O)N3CCC(N4C[C@@H]5C[C@H]4CO5)CC3)c3c2OCC3)nc2[nH]cc(C(F)(F)F)c12` [Example 241, (4-((1S,4S)-2-oxa-5-azabicyclo[2.2.1]heptan-5-yl)piperidin-1-yl)(7-((4-(methylamino)-3-(trifluoromethyl)-1H-pyrrolo[2,3-b]pyridin-6-yl)amino)-2,3-dihydrobenzofuran-4-yl)methanone]: more than 7.00, more than 7.00 and 301 to 1000 nM.
For `CNc1cc(Nc2ccc(C(=O)N3CCC(N4CCOCC4)CC3)c3c2OCCO3)nc2[nH]cc(C(F)(F)F)c12` [Example 160, (8-((4-(methylamino)-3-(trifluoromethyl)-1H-pyrrolo[2,3-b]pyridin-6-yl)amino)-2,3-dihydrobenzo [b] [1,4]dioxin-5-yl)(4-morpholinopiperidin-1-yl)methanone], the pIC50 against LRRK2 (G2019S) and on LRRK2 was more than 7.00 in each case.
Turning to `O=C(c1ccc(Nc2cc(C3CC3)c3c(C(F)(F)F)c[nH]c3n2)c2c1OCCO2)N1CCOCC1` [Example 220, (8-((4-cyclopropyl-3-(trifluoromethyl)-1H-pyrrolo[2,3-b]pyridin-6-yl)amino)-2,3-dihydrobenzo[b] [1,4]dioxin-5-yl)(morpholino) methanone], the pIC50 on LRRK2 (G2019S) and on LRRK2 was 6.00 to 6.52 each time. In the test with MDA-MB-231 cell line, this compound registered a GI50 of 301 to 1000 nM.

By pIC50 is commonly meant −log10 of the IC50, conventionally taken in molar units. High values mean a low IC50, low ones a high IC50. What is called GI50 is the concentration that inhibits growth by half. The low end stands for greater sensitivity of the cells, the high end for lower sensitivity of the cells. For orientation: inhibition means the drop in the measured response relative to a control, in per cent.
